Marks after values point to notes of the source that are not given here.
Tests used:
[1] = test system: DBA/1 mice, passive collagen-induced arthritis; experiment: passive collagen-induced arthritis (anti-type II collagen antibodies); format: in vivo, mouse; settings: 40 mg/kg/day oral gavage for 14 days
Excerpt: The capacity of formula 1 compounds to affect the course of arthritis in a passive collagen induced arthritis model of arthritis was examined essentially as previously described (E. Simelyte et al., Arthritis & Rheumatism, 52(6):1876-1884, 2005; Z. Han et al. Arthritis & Rheumatism 46(3):818-823 2002; H. Miyahara et. Clin. Immunol. Immunopathol., 69(1):69-76 1993). In this protocol, passive collagen-induced arthritis was induced in DBA/1 mice by administering anti-type II collagen antibodies, which induced an immune response against joint tissue in the animals. […] The severity of arthritis was assessed using a semiquantitative clinical scoring system. Groups of 8 animals per group were treated with 17α-ethynylandrost-5-ene-3β,7β,17β-triol at 40 mg/kg/day for 14 days or vehicle for 14 days by oral gavage. The vehicle was 30% cyclodextrin-sulfobutylether in water and the drug solution was vehicle with drug at 20 mg/mL.
The animals were examined by measuring ankle thickness and arthritis score (4-point/paw) with a higher score indicating a more severe arthritis. The experiment was terminated after about 14 days, and histology and gene expression measurements were performed. […] A semi-quantitative scoring system was used to access synovial inflammation, extraarticular inflammation, erosion and proteogylcan loss. […]

[2] = test system: 11β-HSD1; experiment: expression of 11β-HSD1 in osteoblasts of treated mice; format: in vivo, mouse; settings: administration to mice
[3] = test system: estrogen receptor-s or estrogen receptor-s; experiment: interaction with estrogen receptors
[4] = metabolic stability in liver microsomes: rat; settings: 30 min
Description: Metabolic stability. The metabolic stability of selected compounds was examined in vitro using microsomes obtained from liver tissue according to the following protocol.
The protocol was performed as follows. (1) Prepared 0.5 mM compound in acetonitrile/water 35:65. […] (2) Set up samples as follows. […] Tubes for each compound was follows: 1-0′ 2-0′ 3-0′ 4-0′* 5-0′* 6-5 μM 7-1 μM 8-30′ 9-30′ 10-30′ where * designated denatured microsome negative control reaction tubes. For additional compounds numbering was started at 11, 21, 31, etc. (3) Added 315 μL PBS (pH 7.3-7.5) to each tube. Added 10 μL of the appropriate test article solution to each tube. (4) The internal standard/acetonitrile solution. (5) The NADPH regenerating system (NRS) was 125 μL per tube. To PBS added 1.7 mg/ml NADP, 7.8 mg/ml glucose-6-phosphate, 6 units/mL glucose-6-phosphate dehydrogenase. Fresh NRS for each experiment was kept on ice until use. (6) Each reaction used 125 μL of NRS in each tube. (7) Removed liver microsome preparation from −80° C. freezer and thawed in a room temperature water bath. The microsomal preparation was at a concentration of 20 mg/ml. […] (13) The methyl-t-butyl ether was transferred from each tube to a fresh tube and the solvent was evaporated ether under nitrogen and the precipitate was then resuspended in 100 μL acetonitrile/water 35:65 and analyzed by LCMS.

[5] = test system: DBA/1Lac/J mice, collagen induced arthritis; experiment: collagen induced arthritis (CIA), Foxp3+ cells and clinical score; format: in vivo, mouse
Description: Increase of CD4^+CD25^+ T regulatory cells or their activity in vivo. The compound 17α-ethynylandrost-5-ene-3β,7β,17β-triol was administered to mice essentially as described in a previously described collagen induced arthritis animal model. H. Offner et al., Clin. Immunol., 110:181-190, 2006.
DBA/1Lac/J mice were used for the study. The mice were obtained from Jackson Laboratories (Bar Harbor, Harbor, […].) and housed in accordance with applicable institutional guidelines. Bovine type II collagen (bCll) was used to induce collagen induced arthritis (CIA) by immunizing 8-week-old mice with 200 μg of bCII emulsified 1:1 with CFA containing 200 μg Mycobacterium tuberculosis (100 μL; Difco, Detroit, Mich.). The antigen was injected intradermally at the base of the tail. The animals were monitored for 4-7 weeks to observe the onset and progression of the disease post-immunization. The arthritic severity was evaluated with a grading system for each paw according to the following scale: 0=no redness or swelling; 1=slight swelling in ankle or redness in foot; 2=progressed swelling and inflammation and redness from ankle to mid foot; 3=swelling and inflammation of entire foot; 4=swelling and inflammation of entire foot including toes.
After immunization, the mice were treated with the drug at 40 mg/kg/day in vehicle by oral gavage beginning at the start of observable clinical disease (beginning at about 26-27 days after immunization). The vehicle that was used for the protocol was 30% cyclodextrin-sulfobutylether in water. The cyclodextrin-sulfobutylether was obtained commercially (Captisol™ available at cyclexinc.com). The drug formulation was 20 mg drug/mL in the vehicle.

[6] = test system: DIO mice; experiment: diet induced obesity (DIO) mouse, OGTT; format: in vivo; settings: 20, 40 or 80 mg/kg twice a day oral gavage up to 28 days
Excerpt: Diet induced obesity (DIO) mouse hyperglycemia treatment. The effect of a drug to enhance peripheral sensitivity to insulin can be studied in a mouse model in which a state of insulin resistance is attained by feeding the animals a fat-enriched diet (60% of total caloric intake) for at least 6 weeks. This model has been described, e.g., J. N. Thupari et al., Proc. Natl. Acad. Sci. USA, 99(14):9498-9502, 2002, H. Xu et al., J. Clin. Invest., 112:1821-1830, 2003, H. Takahashi et al., J. Biol. Chem., 278(47):46654-46660, 2003.
For these studies, animals of approximately 4 weeks of age were divided into groups of 10 animals each and then treated with a vehicle control (no drug) or 17α-ethynylandrost-5-ene-3β,7β,17β-triol by oral gavage. The 17α-ethynylandrost-5-ene-3β,7β,17β-triol was administered at 20 mg/kg, 40 mg/kg or 80 mg/kg twice a day for up to 28 days. At day 14 and day 28 during the dosing period an OGTT was performed.

[7] = test system: MG-63 cells; experiment: reversal of glucocorticoid effects in MG-63 osteosarcoma cells; format: cell-based, human; settings: 1 nM compound; 7 hours; 30 nM dexamethasone
[8] = 40 mg/kg/day oral gavage from onset of clinical disease, n = 3

SMILES: C#C[C@]1(O)CC[C@H]2[C@@H]3[C@@H](O)C=C4C[C@@H](O)CC[C@]4(C)[C@H]3CC[C@@]21C [17α-ethynylandrost-5-ene-3β,7β,17β-triol]
- maximum clinical score ([1]; at day 7): 5.1
- clinical score at day 14 ([1]; end of the protocol): 4.1
- decrease of expression of 11β-HSD1 in osteoblasts [2]: about 50%
- interaction with estrogen receptor-s or estrogen receptor-s [3]: do not interact
- parent remaining, rat microsome instead of mouse preparation [4]: 86%* (30 min)
- CD4^+Foxp3^+ cells in whole splenocytes [5, 8]: 1.34% ± 0.05
- Total Foxp3^+ cells in whole splenocytes [5, 8]: 2.39% ± 0.16
- Foxp3+ CD4^+ cells by cell sorter analysis ([5]; 40 mg/kg/day, control animals 1.0%): 1.4%
- maximum mean clinical score ([5]; at day 34, vehicle about 6.8-8 between days 34-49): about 5
- mean clinical score ([5]; by day 49): about 3
- glucose intolerance (OGTT glycemic excursion) compared to vehicle [6]: notably reduced glucose intolerance
- reversal of the decrease in osteoprotegerin synthesis [7]: completely reversed
